Source: patent US4112082A (priority 1975, dated 1978)

Experiments:
[1] = system: spider mites (Tetrantychus strain), Resistant Strain; details: in vivo
[2] = system: spider mites (Tetrantychus strain), Normal Strain; details: in vivo
[3] = system: mice; details: mouse, in vivo, sc; cited from earlier work

Question: For `CCOC(=O)CC(SP(=S)(OC)OC)C(=O)OCC` (stereo not drawn) [malathion], which “LD50, Resistant Strain” value [1] is on record?
Answer: 40 μg/8 cm^2

Question: And the “LD50, Normal Strain” value [2]?
Answer: 50 μg/8 cm^2

Question: With `CN(C)C(=O)Oc1cccc([N+](C)(C)C)c1` [neostigmine] as the molecule, how does the LD50 to mice [3] read?
Answer: 0.42 mg/kg
